# Assay results reported in patent US20170128435A1, “TREATMENT OF MULTIPLE SCLEROSIS WITH LAQUINIMOD” (Teva Pharmaceutical Industries, Ltd., priority 2009, published 2017).
# Like-named read-outs stand apart in the source and are kept apart here.
# Assays:
# [1] = (Polman, 2005; Sandberg-Wollheim, 2005); cited from earlier work
# [2] = test system: subjects with relapsing remitting multiple sclerosis (RRMS); test: Phase III clinical trial ALLEGRO: daily oral laquinimod 0.6 mg vs placebo; assay type: in vivo, human; settings: daily oral 0.6 mg, RRMS patients
# Protocol: A multinational, multicenter (approximately 175 centers), randomized, double-blinded, parallel-group, placebo-controlled clinical trial (“ALLEGRO”) is conducted to evaluate the safety, tolerability and efficacy of daily oral administration of laquinimod 0.6 mg in subjects with relapsing remitting multiple sclerosis (RRMS). A multinational, multicenter, randomized, double-blind, parallel-group, placebo-controlled study, to evaluate the safety, tolerability and efficacy of daily oral administration of laquinimod 0.6 mg in subjects with relapsing remitting multiple sclerosis (RRMS). Double blind treatment phase: 24 months of once-daily oral administration of daily dose of 0.6 mg laquinimod or matching placebo Eligible subjects are equally randomized into one of the following treatment arms: • 1. Laquinimod capsules 0.6 mg. The 0.6 mg laquinimod is administered as laquinimod capsules which contains 0.6 mg of Laquinimod Acid per capsule with meglumine. • 2. Matching placebo capsules. Subjects are evaluated at study sites for 12 scheduled visits of the double blind phase at months: −1 (screening), 0 (baseline), 1, 2, 3, 6, 9, 12, 15, 18, 21 and 24 (termination/early discontinuation). In case of the 6 months extended study, subjects are evaluated at study sites at months 27 and 30 (termination/early discontinuation of extended study), in this case month 24 is a regular scheduled visit. The following assessments are performed at specified time points: • 1. Vital signs are measured at each study visit. • 2. A physical examination is performed at months −1 (screening), 0 (baseline) 1, 3, 6, 12, 18 and 24 (termination/early discontinuation core study). In case of the 6 months extended study, additional examination is performed at month 30 (termination/early discontinuation of extended study). • 3. The following safety clinical laboratory tests are performed: • a. Complete blood count (CBC) with differential—at all scheduled visits. A reticulocyte count is added to the CBC at months 0 (baseline) and 24/30 (termination/early discontinuation). • b. Serum chemistry (including electrolytes, liver enzymes, direct and total bilirubin and pancreatic amylase and CPK), and urinalysis—at all scheduled visits. • c. A rapid urine β-hCG test is performed in women of child-bearing potential at baseline (month 0) and at each scheduled study visit thereafter (at site). • d. β-hCG in women of child-bearing potential is performed at all scheduled visits. • e. Starting after visit Month 3 a rapid urine β-hCG test is performed in women of child-bearing potential every 28 (±2) days. The subject is contacted by telephone within 72 hours after the test is scheduled to be performed and asked specific questions regarding the test. In case of suspected pregnancy (positive urine β-hCG test result), the caller makes sure that the study drug has been discontinued and the subject is instructed to arrive at the site as soon as possible with all study drugs. • 4. Markers of inflammation (serum conventional C-reactive protein and fibrinogen)—at screening, baseline and all scheduled visits thereafter. • 5. During the first 3 months periodical phone calls are placed by the site personnel every two weeks. […] ECG is performed at months −1 (screening; additional recording, up to 30 minutes apart is performed if QTc is […] 450 msec), (baseline; three recordings, 15 minutes apart), 1, 2, 3, 6, 12, 18 and 24 (termination/early discontinuation). In case of the 6 months extended study, ECG is performed at month 30 (termination/early discontinuation of the extended study). • 7. Chest X-ray is performed at months −1 (screening), (if not performed within 7 months prior to the screening visit). • 8. Adverse Events (AEs) are monitored throughout the study. • 9. Concomitant medications are monitored throughout the study. • 10. […]
# [3] = test system: subjects with Relapsing-Remitting Multiple Sclerosis (RRMS); test: Phase III clinical trial BRAVO: laquinimod over placebo, with Interferon β-1a (Avonex®) reference arm; assay type: in vivo, human; settings: daily oral 0.6 mg, RRMS patients
# Protocol: A multinational, multicenter, randomized, parallel-group, clinical trial is performed in subjects with RRMS (“BRAVO”). BRAVO is conducted to assess the efficacy, safety and tolerability of laquinimod over placebo in a double-blinded design and of a reference arm of Interferon β-1a (Avonex®) in a rater-blinded design. A multinational, Multicenter, Randomized, Parallel-Group study performed in subjects with Relapsing-Remitting Multiple Sclerosis (RRMS) to assess the efficacy, safety and tolerability of laquinimod over placebo in a double-blind design and of a reference arm of Interferon β-1a (Avonex®)in a rater-blinded design. Treatment phase: 24 months of once-daily oral administration of laquinimod 0.6 mg, matching oral placebo or once-weekly intramuscular administration of Interferon β-1a (Avonex®) 30 mcg. Eligible subjects are randomized in a 1:1:1 ratio (oral laquinimod: oral placebo: Avonex®) and assigned to one of the following three treatment arms: • 1. Laquinimod 0.6 mg per os once daily (400 subjects). The 0.6 mg laquinimod is administered as laquinimod capsules which contains 0.6 mg of Laquinimod Acid per capsule with meglumine. • 2. Matching placebo (for laquinimod) per os once daily (400 subjects). • 3. Interferon β-1a (Avonex®) 30 mcg intramuscular injection once weekly (400 subjects). Subjects on oral treatment are managed in a double-blind manner. Subjects assigned to injectable treatment with Avonex® and their Treating Neurologist/Physician are unblinded to the treatment assignment, but assessed neurologically by an Examining Neurologist/Physician in a blinded manner (potential IM injection sites are covered). During the study, the following assessments are performed (regardless of the treatment assignment) at the specified time points: • 1. Vital signs are measured at each study visit. • 2. A physical examination is performed at months −1 (screening), 0 (baseline) 1, 3, 6, 12, 18 and 24 (termination/early discontinuation). • 3. The following safety clinical laboratory tests are performed: • a. Complete blood count (CBC) with differential—at all scheduled visits. A reticulocyte count is added to the CBC at months 0 (baseline) and 24 (termination/early discontinuation) as well as in occasions of significant decrease in hemoglobin. • b. Serum chemistry (including electrolytes, liver enzymes, direct and total bilirubin, CPK and pancreatic amylase), and urinalysis—at all scheduled visits. • c. Serum TSH, T3 and Free T4 are measured at months 0 (baseline), 6, 12, 18 and 24 (termination/early discontinuation). • d. […] Markers of inflammation (serum conventional C-reactive protein and fibrinogen) are measured at all scheduled visits. • 5. […]
# [4] = test system: relapsing MS; settings: cited from earlier work
# [5] = test system: Relapsing-Remitting Multiple Sclerosis; settings: 0.3 mg/day oral dose (Comi, 2007); cited from earlier work
Compound,oral bioavailability [1],MRI-monitored disease activity: cumulative number of enhancing lesions on T1-weighted images [2],MRI-monitored disease activity: cumulative number of new T2 lesions [2],MRI-monitored disease activity: cumulative number of new hypointense lesions on T1-scans [2],"accumulation of physical disability, as measured by the time to confirmed progression of EDSS [2]",relapse rate ([2]; double blind study period),number of confirmed relapses during the double blind study period ([2]; vs placebo),"accumulation of physical disability, as measured by the MSFC score at the end of the treatment period [3]","accumulation of physical disability, as measured by time to confirmed progression of EDSS [3]","brain atrophy, as measured by percent brain volume change from baseline to the end of the treatment period [3]",number of confirmed relapses (directly related to the relapse rate) ([3]; treatment period),"development of active MRI lesions ([4]; 0.3 mg/day oral dose, relapsing MS (RRMS and SPMS) (Polman, 2005))","development of active MRI lesions ([4]; relapsing MS, dose not stated (Polman, 2005))",MRI and clinical effect as compared to placebo [5]
CCN(C(=O)c1c(O)c2c(Cl)cccc2n(C)c1=O)c1ccccc1 [Laquinimod sodium],high,–,–,–,–,–,–,–,–,–,–,–,–,–
CCN(C(=O)c1c(O)c2c(Cl)cccc2n(C)c1=O)c1ccccc1 [laquinimod],–,reduces,reduces,reduces,reduces,reduces,reduces,reduces,reduces,reduces,reduces,reduce,reduce,neither MRI nor clinical effect
